Results as given in patent publication US7531194B2, “Plant extracts for the treatment of rheumatoid arthritis” (Development Center for Biotechnology, priority 2006, dated 2009).

Legend:
Format in all cases: in vivo, Lewis rats
Rheumatoid factor (RF) = test: Serum RF analysis of CIA rats fed PA crude extracts (Embodiment 2)
Experimental: The animal test scheme is shown as FIG. 2. Bovine collagen Type II (Bovine C II) was dissolved in 0.1 M acetic acid solution, stirred to dissolve thoroughly, and formulated into solutions with concentrations of 1.5 and 3 mg/ml, which were stored in 4° C. for later use. For the first immune injection, 100 μl of C II solution was emulsified with an equal amount of CFA, and injected subcutaneously (200 μl/rat) in the root portions of tails of the rats after the emulsification was complete. […] After about 15 days, the second immunization was done. 100 μl of C II solution was emulsified with an equal amount of IFA, and injected subcutaneously (200 μl/rat) in the root portions of tails of the rats after the emulsification was complete. Approximately from Day 20, the symptoms of arthritis were observed (CIA rats), and PA and indomethacin were fed until Day 45. [table] 1. Collagen was formulated in a coating buffer to a concentration of 40 μg/ml, 0.1 ml of which was added into a 96-well micro plate respectively, and was kept in 4° C. overnight. 2. After washing with Tris buffer three times, 0.2 ml of blocking buffer containing 1% BSA was added into each well. The reaction lasted for 2 hours at room temperature, and then was washed by Tris buffer three times again. 3. […] Finally, absorption (O.D) value was read out at the wavelength of 450 nm.

IL-6 = test: Abdominal cavity cell (PEC) culture, cytokine IL-6, CIA rats fed PA crude extracts (Embodiment 2); conditions: LPS 10 μg/ml, 24 hours, FIG. 9
Experimental: The animal test scheme is shown as FIG. 2. Bovine collagen Type II (Bovine C II) was dissolved in 0.1 M acetic acid solution, stirred to dissolve thoroughly, and formulated into solutions with concentrations of 1.5 and 3 mg/ml, which were stored in 4° C. for later use. For the first immune injection, 100 μl of C II solution was emulsified with an equal amount of CFA, and injected subcutaneously (200 μl/rat) in the root portions of tails of the rats after the emulsification was complete. […] After about 15 days, the second immunization was done. 100 μl of C II solution was emulsified with an equal amount of IFA, and injected subcutaneously (200 μl/rat) in the root portions of tails of the rats after the emulsification was complete. Approximately from Day 20, the symptoms of arthritis were observed (CIA rats), and PA and indomethacin were fed until Day 45. [table] 1. After carbon dioxide euthanasia, the outer furs of the rat abdominal cavity were cut out by scissors, to expose the whole abdominal cavity. 2. HBSS buffer was injected into the abdominal cavity batch-wise by a 10 ml syringe to make a total volume of about 20 ml/rat. 3. The abdominal cavity of the rat was opened after the abdomen was gently kneaded. An incision of about 2 cm was made in the abdominal cavity by using scissors. […] The concentrations of cytokine TNF-α, IL-6, and IL-1β were analyzed by using ELISA kit.

[1] = Body weight of CIA rats fed PA crude extracts (Embodiment 2); conditions: gavage from about Day 20 until Day 45, PA-H 375, PA-L 75, indomethacin 2.5 mg/kg/day, FIG. 3
Experimental: The test animals, Lewis rats, 8 weeks old and about 155-165 g in weight, were all purchased from National Laboratory Animal Center. They were raised in an animal house with a 12-hour light/12-hour dark cycle, a room temperature of 23±1° C., moderate moisture, and good air conditioning, wherein water and feed were provided ad libitum. In addition, during the operation, all the test animals conformed to the criteria of the International Committee on Laboratory Animals' standard regulation. The animal test scheme is shown as FIG. 2. Bovine collagen Type II (Bovine C II) was dissolved in 0.1 M acetic acid solution, stirred to dissolve thoroughly, and formulated into solutions with concentrations of 1.5 and 3 mg/ml, which were stored in 4° C. for later use. For the first immune injection, 100 μl of C II solution was emulsified with an equal amount of CFA, and injected subcutaneously (200 μl/rat) in the root portions of tails of the rats after the emulsification was complete. […] After about 15 days, the second immunization was done. 100 μl of C II solution was emulsified with an equal amount of IFA, and injected subcutaneously (200 μl/rat) in the root portions of tails of the rats after the emulsification was complete. Approximately from Day 20, the symptoms of arthritis were observed (CIA rats), and PA and indomethacin were fed until Day 45. [table] 1. […]

## COc1ccc2c(c1)c(CC(=O)O)c(C)n2C(=O)c1ccc(Cl)cc1 [indomethacin, Indomethacin]
Rheumatoid factor (RF); Day 35 compared with Day 20, FIG. 6
  reduction of serum RF value: 47%
Rheumatoid factor (RF); Day 45 compared with Day 20, FIG. 6
  reduction of serum RF value: 51%
IL-6
  inhibition of PEC secreting IL-6: no effect of inhibiting PEC from secreting inflammatory cytokine
[1]
  effect on the body weight of CIA rats (weight reduction): weight reduction is efficiently avoided
